From ChEMBL document CHEMBL5532679, “Discovery and Characterization of RGH-122, a Potent, Selective, and Orally Bioavailable V1a Receptor Antagonist” (J Med Chem, 2024)

Experiments:
[1] = molecular target: Voltage-gated inwardly rectifying potassium channel KCNH2 (Homo sapiens, UniProt Q12809)
Description: Inhibition of hERG expressed in CHO cells at -80 mV holding potential incubated for 7 to 10 mins by automated patch clamp method

[2] = Efflux ratio of apparent permeability across basolateral to apical side over apical to basolateral side in vinblastine treated human Caco-2 cells at 1 to 10 uM incubated for 15 to 60 hrs by HPLC analysis
in vitro [3] = conditions: Wistar, rat, microsomes
in vitro [4] = conditions: CD-1, mouse, liver microsomes
[5] = Apparent permeability of compound across apical to basal side in vinblastine treated human Caco-2 cells at 1 to 10 uM incubated for 15 to 60 mins by HPLC analysis
Vasopressin V1a receptor [6] = molecular target: T1, Vasopressin V1a receptor (Homo sapiens, UniProt P37288)
T1 sequence (P37288 whole entry): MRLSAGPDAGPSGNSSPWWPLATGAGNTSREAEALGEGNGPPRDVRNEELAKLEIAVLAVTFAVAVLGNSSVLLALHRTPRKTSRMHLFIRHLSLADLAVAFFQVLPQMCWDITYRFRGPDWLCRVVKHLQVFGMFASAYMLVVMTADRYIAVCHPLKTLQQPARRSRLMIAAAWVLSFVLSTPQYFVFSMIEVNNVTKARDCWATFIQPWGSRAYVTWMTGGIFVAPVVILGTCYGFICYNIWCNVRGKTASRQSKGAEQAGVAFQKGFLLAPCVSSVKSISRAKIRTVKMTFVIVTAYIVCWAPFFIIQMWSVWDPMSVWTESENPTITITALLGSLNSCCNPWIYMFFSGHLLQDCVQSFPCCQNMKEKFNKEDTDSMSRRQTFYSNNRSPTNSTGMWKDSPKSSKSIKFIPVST
Description: Antagonist activity at human V1A receptor expressed in human 1321N1 cells assessed as Ca2+ mobilization incubated for 15 mins by FLIPR calcium 5 assay

in vitro [7] = conditions: NMRI, mouse, microsomes
Vasopressin V1a receptor [8] = molecular target: T1, Vasopressin V1a receptor; remark: listed apart in the source
Description: Displacement of [3H]vasopressin from human V1A receptor assessed as inhibition constant by Cheng-Prusoff equation analysis

[9] = human, microsomes, 1 µM
animal or person [10] = conditions: Mus musculus, NMRI, po, read-out: INH
animal or person [11] = conditions: Mus musculus, NMRI, po, read-out: INH; remark: listed apart in the source
[12] = Half life in Wistar rat plasma at 3 mg/kg, po by HPLC-MS/MS analysis
in vivo [13] = conditions: Wistar, rat, plasma, po, 3 mg/kg
[14] = Half life in Wistar rat plasma at 3 mg/kg, iv by HPLC-MS/MS analysis
in vivo [15] = conditions: Wistar, rat, brain, po, 3 mg/kg
in vivo [16] = conditions: Wistar, rat, brain, po, 3 mg/kg; remark: listed apart in the source
in vivo [17] = conditions: Wistar, rat, plasma, iv, 3 mg/kg
in vivo [18] = conditions: Wistar, rat, brain, po, 3 mg/kg; remark: listed apart in the source
[19] = Half life in Wistar rat brain at 3 mg/kg, po by HPLC-MS/MS analysis
in vivo [20] = conditions: Wistar, rat, iv, 3 mg/kg
in vivo [21] = conditions: Wistar, rat, po, 3 mg/kg
in vivo [22] = conditions: Wistar, rat, plasma, iv, 3 mg/kg; remark: listed apart in the source
in vivo [23] = conditions: Wistar, rat, po, 3 mg/kg; remark: listed apart in the source
in vitro [24] = conditions: human, microsomes
animal or person [25] = conditions: Rattus norvegicus, po, read-out: INH
animal or person [26] = conditions: Mus musculus, NMRI, read-out: INH
Cytochrome P450 1A2 = molecular target: T2, Cytochrome P450 1A2 (Homo sapiens, UniProt P05177); assay: Inhibition of CYP1A2 (unknown origin); assay type: ADME
T2 sequence (P05177 whole entry): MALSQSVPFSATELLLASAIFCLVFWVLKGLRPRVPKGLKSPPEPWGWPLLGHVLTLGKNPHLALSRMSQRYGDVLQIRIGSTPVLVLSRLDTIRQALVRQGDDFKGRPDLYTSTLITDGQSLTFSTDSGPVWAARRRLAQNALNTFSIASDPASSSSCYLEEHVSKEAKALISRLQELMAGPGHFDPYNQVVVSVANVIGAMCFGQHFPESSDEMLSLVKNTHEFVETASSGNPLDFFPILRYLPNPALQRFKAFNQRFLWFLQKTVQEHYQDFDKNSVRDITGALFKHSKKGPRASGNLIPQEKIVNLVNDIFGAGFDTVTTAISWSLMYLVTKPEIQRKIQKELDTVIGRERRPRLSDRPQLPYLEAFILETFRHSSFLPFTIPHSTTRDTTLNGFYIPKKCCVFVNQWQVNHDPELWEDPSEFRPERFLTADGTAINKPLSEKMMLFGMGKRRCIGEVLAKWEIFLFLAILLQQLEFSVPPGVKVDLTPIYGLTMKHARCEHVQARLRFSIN

Cytochrome P450 2B6 = molecular target: T3, Cytochrome P450 2B6 (Homo sapiens, UniProt P20813); assay: Inhibition of CYP2B6 (unknown origin); assay type: ADME
T3 sequence (P20813 whole entry): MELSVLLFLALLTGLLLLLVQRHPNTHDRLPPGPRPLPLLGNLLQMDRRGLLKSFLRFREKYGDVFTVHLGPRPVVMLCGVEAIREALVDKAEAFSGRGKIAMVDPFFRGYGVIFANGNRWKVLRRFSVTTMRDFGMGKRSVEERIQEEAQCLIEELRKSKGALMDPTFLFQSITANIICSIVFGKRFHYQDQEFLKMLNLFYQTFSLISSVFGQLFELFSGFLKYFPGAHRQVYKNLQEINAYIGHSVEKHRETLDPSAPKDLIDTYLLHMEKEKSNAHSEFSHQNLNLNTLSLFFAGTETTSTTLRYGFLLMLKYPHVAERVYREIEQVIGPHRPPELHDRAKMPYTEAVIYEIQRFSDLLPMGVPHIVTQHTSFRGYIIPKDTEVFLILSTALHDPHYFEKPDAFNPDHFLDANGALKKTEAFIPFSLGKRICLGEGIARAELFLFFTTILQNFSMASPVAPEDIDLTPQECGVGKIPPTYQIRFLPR

Cytochrome P450 2C9 = Cytochrome P450 2C9 (Homo sapiens, UniProt P11712); assay: Inhibition of CYP2C9 (unknown origin); assay type: ADME
Sequence of Cytochrome P450 2C9 (P11712 whole entry): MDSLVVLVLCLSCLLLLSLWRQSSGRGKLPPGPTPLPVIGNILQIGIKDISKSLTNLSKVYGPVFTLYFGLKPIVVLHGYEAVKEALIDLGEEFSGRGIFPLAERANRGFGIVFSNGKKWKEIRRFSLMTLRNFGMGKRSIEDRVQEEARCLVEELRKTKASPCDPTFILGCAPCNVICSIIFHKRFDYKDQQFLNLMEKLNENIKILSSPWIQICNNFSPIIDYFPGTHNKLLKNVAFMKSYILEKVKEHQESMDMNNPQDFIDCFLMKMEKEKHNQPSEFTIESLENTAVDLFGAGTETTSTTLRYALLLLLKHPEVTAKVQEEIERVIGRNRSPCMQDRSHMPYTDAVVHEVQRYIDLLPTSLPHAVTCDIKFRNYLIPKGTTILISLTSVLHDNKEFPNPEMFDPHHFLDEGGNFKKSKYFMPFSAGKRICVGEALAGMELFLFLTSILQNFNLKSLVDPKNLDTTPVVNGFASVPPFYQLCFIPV

Cytochrome P450 2C8 = molecular target: T4, Cytochrome P450 2C8 (Homo sapiens, UniProt P10632); assay: Inhibition of CYP2C8 (unknown origin); assay type: ADME
T4 sequence (P10632 whole entry): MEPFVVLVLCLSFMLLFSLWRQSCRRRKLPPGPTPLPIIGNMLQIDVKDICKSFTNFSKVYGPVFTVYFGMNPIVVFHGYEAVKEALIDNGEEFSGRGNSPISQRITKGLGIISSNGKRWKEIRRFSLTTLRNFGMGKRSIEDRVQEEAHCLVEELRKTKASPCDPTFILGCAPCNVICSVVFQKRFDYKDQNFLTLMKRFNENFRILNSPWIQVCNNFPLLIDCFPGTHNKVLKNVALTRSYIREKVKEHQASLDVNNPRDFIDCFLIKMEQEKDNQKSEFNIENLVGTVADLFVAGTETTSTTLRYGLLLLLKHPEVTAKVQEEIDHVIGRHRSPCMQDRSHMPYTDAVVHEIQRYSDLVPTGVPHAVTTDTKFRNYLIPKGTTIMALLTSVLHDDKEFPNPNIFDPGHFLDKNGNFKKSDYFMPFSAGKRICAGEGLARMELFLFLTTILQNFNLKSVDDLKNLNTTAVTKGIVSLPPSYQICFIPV

Cytochrome P450 2D6 = Cytochrome P450 2D6 (Homo sapiens, UniProt P10635); assay: Inhibition of CYP2D6 (unknown origin); assay type: ADME
Sequence of Cytochrome P450 2D6 (P10635 whole entry): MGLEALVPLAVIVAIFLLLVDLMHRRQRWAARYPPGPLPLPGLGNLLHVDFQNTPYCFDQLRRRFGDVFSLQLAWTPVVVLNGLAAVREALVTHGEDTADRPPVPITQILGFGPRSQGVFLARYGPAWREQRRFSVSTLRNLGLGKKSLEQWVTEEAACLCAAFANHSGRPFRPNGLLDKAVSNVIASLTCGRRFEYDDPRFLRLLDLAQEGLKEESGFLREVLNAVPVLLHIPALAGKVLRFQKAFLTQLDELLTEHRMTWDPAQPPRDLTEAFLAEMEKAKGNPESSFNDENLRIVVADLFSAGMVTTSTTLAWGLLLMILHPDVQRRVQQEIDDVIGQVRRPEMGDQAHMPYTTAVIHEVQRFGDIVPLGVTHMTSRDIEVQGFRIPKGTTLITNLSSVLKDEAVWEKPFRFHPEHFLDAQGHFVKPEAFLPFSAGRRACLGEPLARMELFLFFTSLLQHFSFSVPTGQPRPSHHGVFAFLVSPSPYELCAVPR

Cytochrome P450 3A4 = Cytochrome P450 3A4 (Homo sapiens, UniProt P08684); assay: Inhibition of CYP3A4 (unknown origin); assay type: ADME
Sequence of Cytochrome P450 3A4 (P08684 whole entry): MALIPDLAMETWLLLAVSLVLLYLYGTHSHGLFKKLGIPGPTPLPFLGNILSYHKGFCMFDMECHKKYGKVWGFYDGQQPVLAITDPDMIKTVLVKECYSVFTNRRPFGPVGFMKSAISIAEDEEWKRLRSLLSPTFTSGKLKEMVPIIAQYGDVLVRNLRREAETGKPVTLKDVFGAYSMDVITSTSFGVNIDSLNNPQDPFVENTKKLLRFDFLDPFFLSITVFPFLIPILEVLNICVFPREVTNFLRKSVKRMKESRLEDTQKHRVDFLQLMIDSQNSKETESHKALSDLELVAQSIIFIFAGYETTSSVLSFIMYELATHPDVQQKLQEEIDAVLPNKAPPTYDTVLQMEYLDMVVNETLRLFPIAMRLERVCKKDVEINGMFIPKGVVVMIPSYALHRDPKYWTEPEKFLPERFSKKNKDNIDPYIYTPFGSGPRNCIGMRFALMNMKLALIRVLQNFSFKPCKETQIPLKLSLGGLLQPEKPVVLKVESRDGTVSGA

Sequence of Voltage-gated inwardly rectifying potassium channel KCNH2 (Q12809 whole entry): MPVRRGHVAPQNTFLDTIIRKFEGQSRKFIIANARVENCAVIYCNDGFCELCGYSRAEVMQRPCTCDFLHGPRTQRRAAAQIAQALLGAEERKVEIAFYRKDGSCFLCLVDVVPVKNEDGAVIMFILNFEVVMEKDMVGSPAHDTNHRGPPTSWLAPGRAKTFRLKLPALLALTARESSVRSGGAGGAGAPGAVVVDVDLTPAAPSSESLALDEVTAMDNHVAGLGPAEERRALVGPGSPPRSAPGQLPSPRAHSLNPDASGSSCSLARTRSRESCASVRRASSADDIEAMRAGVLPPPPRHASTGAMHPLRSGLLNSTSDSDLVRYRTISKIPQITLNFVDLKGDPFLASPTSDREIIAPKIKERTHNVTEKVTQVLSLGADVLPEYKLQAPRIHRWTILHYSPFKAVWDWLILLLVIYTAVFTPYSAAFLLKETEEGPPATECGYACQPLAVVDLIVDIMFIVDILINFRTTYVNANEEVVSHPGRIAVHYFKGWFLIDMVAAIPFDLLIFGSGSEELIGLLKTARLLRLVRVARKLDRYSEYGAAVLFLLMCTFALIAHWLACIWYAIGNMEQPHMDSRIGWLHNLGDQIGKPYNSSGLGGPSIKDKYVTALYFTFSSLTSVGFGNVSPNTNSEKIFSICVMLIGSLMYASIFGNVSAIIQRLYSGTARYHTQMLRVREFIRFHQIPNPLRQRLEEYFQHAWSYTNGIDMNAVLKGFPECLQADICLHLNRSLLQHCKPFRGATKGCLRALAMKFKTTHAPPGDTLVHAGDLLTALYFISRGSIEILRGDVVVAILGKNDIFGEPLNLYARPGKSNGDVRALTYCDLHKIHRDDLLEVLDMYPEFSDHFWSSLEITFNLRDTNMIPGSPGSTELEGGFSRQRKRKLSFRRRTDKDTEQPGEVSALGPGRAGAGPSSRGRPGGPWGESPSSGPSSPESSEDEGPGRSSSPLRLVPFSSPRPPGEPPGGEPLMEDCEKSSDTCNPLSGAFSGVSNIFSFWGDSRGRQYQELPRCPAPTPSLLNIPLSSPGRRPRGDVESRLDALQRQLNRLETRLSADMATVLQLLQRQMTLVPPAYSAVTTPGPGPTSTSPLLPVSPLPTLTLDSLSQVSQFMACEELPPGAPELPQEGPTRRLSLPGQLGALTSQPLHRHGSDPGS

Structure (SMILES)	IC50 [1] [µM]	efflux ratio at 10 µM [2]	microsomal CLint at 1 µM (in vitro [3]) [µL/min/mg]	microsomal CLint at 1 µM (in vitro [4]) [µL/min/mg]	Papp A→B at 10 µM [5] [×10⁻⁶ cm/s]	IC50 (Vasopressin V1a receptor [6]) [nM]	microsomal CLint at 1 µM (in vitro [7]) [µL/min/mg]	Ki (Vasopressin V1a receptor [8]) [nM]	CLH [9]	inhibition in vivo at 10 mg/kg (animal or person [10]) [%]	inhibition in vivo at 3 mg/kg (animal or person [11]) [%]	also measured
Clc1ccc2c(c1)CC1(Cc3nnc([C@H]4CC[C@H](N5CCOCC5)CC4)n3-2)OCCO1	3.5	15	6	7	4.5	–	–	–	–	–	–	–
COCC1Cc2cc(Cl)ccc2-n2c(nnc2[C@H]2CC[C@H](Oc3ccccn3)CC2)C1 (some centres not stated)	–	1	–	–	30	0.8	126	0.6	46 µL/min/kg	–	–	–
Clc1ccc2c(c1)CC1(Cc3nnc([C@H]4CC[C@H](Oc5ccccn5)CC4)n3-2)OCCCCO1	–	–	229	–	–	1.1	211	–	170 µL/min/kg	–	–	–
FC(F)(F)[C@H]1CC[C@H](c2nnc3n2-c2ccc(Cl)cc2CC2(C3)OCCO2)CC1	> 30	1	16	–	39	–	34	–	0.2 µL/min/kg	41	0	–
Clc1ccc2c(c1)CC1(CCOC1)Cc1nnc([C@H]3CC[C@H](Oc4ccccn4)CC3)n1-2 (some centres not stated)	–	–	42	80	–	1.3	–	0.3	26 µL/min/kg	–	–	–
OC1Cc2cc(Cl)ccc2-n2c(nnc2[C@H]2CC[C@H](Oc3ccccn3)CC2)C1 (mixture of isomers)	> 30	5.9	17	–	20	–	6	–	0.4 µL/min/kg	91	87	half-life [12]: 90 min; Cmax (in vivo [13]): 403 nM; half-life [14]: 60 min; Cmax (in vivo [15]): 190 nM; Tmax (in vivo [16]): 30 min; Tmax (in vivo [17]): 18 min; Kp (in vivo [18]): 0.54; half-life [19]: 85.8 min; AUC(0-t) (in vivo [20]): 0.876 µM·h; AUC(0-t) (in vivo [21]): 0.897 µM·h; Cmax (in vivo [22]): 469 nM; AUC(0-t) (in vivo [23]): 0.481 µM·h
O=C1Cc2cc(Cl)ccc2-n2c(nnc2[C@H]2CC[C@H](Oc3ccccn3)CC2)C1	> 30	–	43	–	–	–	36	–	124 µL/min/kg	70	58	–
CN1Cc2cc(Cl)ccc2-n2c(nnc2[C@H]2CC[C@H](Oc3ccccn3)CC2)C1 [BALOVAPTAN]	21	–	17	–	51	–	22	–	51 µL/min/mg	69	7	–
N#CCC(=O)N[C@@H]1Cc2cc(Cl)ccc2-n2c(nnc2[C@H]2CC[C@H](Oc3ccccn3)CC2)C1	–	118	15	19	0.5	–	–	–	–	–	–	microsomal CLint at 1 µM (in vitro [24]): 13 µL/min/mg
CC(=O)N[C@@H]1Cc2cc(Cl)ccc2-n2c(nnc2[C@H]2CC[C@H](Oc3ccccn3)CC2)C1	–	14	1	4	2.7	–	–	–	–	–	–	microsomal CLint at 1 µM (in vitro [24]): 0.2 µL/min/mg
CO[C@@H]1Cc2cc(Cl)ccc2-n2c(nnc2[C@H]2CC[C@H](Oc3ccccn3)CC2)C1	13.8	0.9	41	25	38	0.6	–	0.2	–	67	73	inhibition in vivo at 10 mg/kg (animal or person [25]): > 60%
Clc1cnc2n1CCCc1nnc([C@H]3CC[C@H](Oc4ccccn4)CC3)n1-2	–	0.8	12	–	–	178	15	–	41 µL/min/mg	–	–	inhibition in vivo at 10 mg/kg (animal or person [26]): 32%
CO[C@H]1Cc2cc(Cl)ccc2-n2c(nnc2[C@H]2CC[C@H](Oc3ccccn3)CC2)C1	10.2	2.7	33	66	40	0.6	–	2	–	71	69	–
O=C(N[C@@H]1Cc2cc(Cl)ccc2-n2c(nnc2[C@H]2CC[C@H](Oc3ccccn3)CC2)C1)C1CC1	–	14.6	1	22	4.3	–	–	–	–	–	–	microsomal CLint at 1 µM (in vitro [24]): 1 µL/min/mg
Clc1ccc2c(c1)CC1(Cc3nnc([C@H]4CC[C@H](Oc5ccccn5)CC4)n3-2)OCCO1	–	–	–	–	–	–	–	–	–	–	–	IC50 (Cytochrome P450 1A2): > 10 µM; IC50 (Cytochrome P450 2B6): > 10 µM; IC50 (Cytochrome P450 2C9): > 10 µM; IC50 (Cytochrome P450 2C8): > 10 µM; IC50 (Cytochrome P450 2D6): > 10 µM; IC50 (Cytochrome P450 3A4): > 10 µM
Clc1ccc2c(c1)CC1(CCCOC1)Cc1nnc([C@H]3CC[C@H](Oc4ccccn4)CC3)n1-2 (some centres not stated)	–	–	267	263	–	23	–	0.3	256 µL/min/kg	–	–	–
